Source: publication PMC4391872, “Direct Binding of Ledipasvir to HCV NS5A: Mechanism of Resistance to an HCV Antiviral Agent” (PLoS ONE, 2015)
Where two headings read alike, the source gives them in different places.

Experiments:
[1] = target: T1, NS5A-6HIS (full length NS5A, genotype 1b, Con1) (Hepatitis C virus (isolate Con1), UniProt Q9WMX2); test: competition of 3H-LDV binding, Ni-NTA capture
T1 construct: mature NS5A cut from HCV genome polyprotein; full length residues 1-447 with N-terminal amphipathic helix, C-terminal 6His tag kept; Sf9 baculovirus, C12E8 solubilised, phosphorylated
T1 sequence (Q9WMX2 1973-2419): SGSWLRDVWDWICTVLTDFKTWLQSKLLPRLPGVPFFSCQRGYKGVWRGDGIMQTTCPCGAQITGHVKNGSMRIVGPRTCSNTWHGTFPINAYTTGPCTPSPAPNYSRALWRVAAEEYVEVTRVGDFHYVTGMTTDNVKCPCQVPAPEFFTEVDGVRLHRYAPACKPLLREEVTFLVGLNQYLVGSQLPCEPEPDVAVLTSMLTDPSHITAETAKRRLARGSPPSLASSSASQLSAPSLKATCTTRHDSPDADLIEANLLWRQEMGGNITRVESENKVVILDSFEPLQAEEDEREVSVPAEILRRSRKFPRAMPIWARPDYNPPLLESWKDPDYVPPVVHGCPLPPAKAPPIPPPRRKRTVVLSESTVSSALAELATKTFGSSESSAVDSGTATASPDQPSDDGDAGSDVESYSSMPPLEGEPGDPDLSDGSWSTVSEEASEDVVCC

[2] = target: T1, NS5A-6HIS (full length NS5A, genotype 1b, Con1); test: competition of 3H-LDV binding, Ni-NTA capture; remark: listed apart in the source
Experimental: competition of 3H-LDV binding, Ni-NTA capture on NS5A-6HIS (full length NS5A, genotype 1b, Con1) | Ki was calculated using the Cheng-Prusoff equation

[3] = target: T1, NS5A-6HIS (full length NS5A, genotype 1b, Con1); test: radioligand saturation binding, Ni-NTA capture
[4] = target: NS5A-Y93H-6HIS (Y93H mutant of full length NS5A, genotype 1b, Con1, with C-terminal His tag) (Hepatitis C virus genotype 1b, Con1); test: AUC; sedimentation velocity (42,000 rpm, 3.3 and 6.6 uM) and equilibrium, 20 C, protein in C12E8 micelles, 25 mM Tris pH 7.5, 150 mM NaCl, 0.5 mM TCEP, 0.02% C12E8, 21.1% D2O (density matched to the detergent); self-association

Row | Compound | Ki [2] [nM] | IC50 ([1]; read-out: IC50) [nM] | also measured
1 | O=C1N[C@H]2[C@H](CS[C@H]2CCCCC(=O)N2CCC[C@H]2C(=O)Nc2ccc(/C=C/c3ccc(NC(=O)[C@@H]4CCCN4C(=O)Cc4ccccc4)cc3)cc2)N1 [BMS-Biotin] | – | – | IC50 ([1]; read-out: no competition up to 100 μM): > 100000 nM
2 | COC(=O)N[C@H](C(=O)N1CCC[C@H]1c1nc(-c2ccc(-c3ccc(-c4c[nH]c([C@@H]5CCCN5C(=O)[C@@H](NC(=O)OC)C(C)C)n4)cc3)cc2)c[nH]1)C(C)C [daclatasvir] | 499 ± 68.3 | 753 | –
3 | COC(=O)N[C@H](C(=O)N1CC2(CC2)C[C@H]1c1ncc(-c2ccc3c(c2)C(F)(F)c2cc(-c4ccc5nc([C@@H]6[C@H]7CC[C@H](C7)N6C(=O)[C@@H](NC(=O)OC)C(C)C)[nH]c5c4)ccc2-3)[nH]1)C(C)C [ledipasvir] | 98.7 ± 10.2 | 149 | Kd [3]: 58.9 ± 6.6 nM
4 | NS5A-Y93H-6HIS (Y93H mutant of full length NS5A, genotype 1b, Con1, with C-terminal His tag) (natural protein) | – | – | percent dimers [4]: 3%; percent higher order oligomers [4]: 7%
